Entries after “also recorded” stand apart in the source; their conditions may differ. Where two headings read alike, the source gives them in different places.
Experiments:
Assay type in all cases: in vivo
Serum Cholesterol [1] = test: Antihyperlipidemic effect in CF1 male mice: serum cholesterol; details: for response vs control in vivo at 20 mg/kg: Mus musculus, ip; for antihypercholesteremic activity (in words): mice, compared with others of Table I
Serum Triglycerides = test: Antihyperlipidemic effect in CF1 male mice: serum triglycerides; details: for response vs control in vivo at 20 mg/kg: Mus musculus, ip, 384 h; for response vs control in vivo at 20 mg/kg / Serum Triglycerides, Day 16: 20 mg/kg/day I.P., CF1 male mice, N = 6, Day 16; for antihypertriglyceridemic activity (in words): mice, compared with others of Table I
Method: Serum triglycerides were assayed using the commercially available Bio-Dynamics/bmc Triglyceride Kit on blood collected on the 16th day. By comparison to standards, the mg% of cholesterol and mg/dl of triglycerides were calculated. Treated values are expressed as percent of control.

[2] = test system: normal and hyperlipidemic mice; test: Hypolipidemic effect in normal and hyperlipidemic mice, oral and intraperitoneal; details: orally and intraperitoneally
triglyceride levels = test: Hypolipidemic effect in rodents at 60 mg/kg/day: triglycerides
Method: Of the series of compounds tested thus far, N-(p-chlorobenzoyl)-sulfamate and (o-chlorobenzyl)-sulfonamide appear to be of the most interest. N-(p-chlorobenzoyl)-sulfamic acid sodium salt at 20 mg/kg/day, I.P. lowered serum cholesterol levels 48% and serum triglyceride levels 45% after 16 days dosing.

serum cholesterol [3] = test: Hypolipidemic effect in rodents at 60 mg/kg/day: serum cholesterol
Excerpt: Of the series of compounds tested thus far, N-(p-chlorobenzoyl)-sulfamate and (o-chlorobenzyl)-sulfonamide appear to be of the most interest. […]

[4] = 216 h, 20 mg/kg/day I.P., CF1 male mice, N = 6, Day 9, read-out: Serum Cholesterol, Day 9
[5] = 384 h, 20 mg/kg/day I.P., CF1 male mice, N = 6, Day 16, read-out: Serum Cholesterol, Day 16
[6] = 20 mg/kg/day, I.P., after 16 days dosing, lowering

Compound | response vs control in vivo at 20 mg/kg (Serum Cholesterol [1]; [4]) [%] | response vs control in vivo at 20 mg/kg (Serum Cholesterol [1]; [5]) [%] | response vs control in vivo at 20 mg/kg (Serum Triglycerides) [%] | antihypertriglyceridemic activity (in words) (Serum Triglycerides) | other results
Cc1ccc(C(=O)NS(=O)(=O)O)cc1 [Compound 9] | 70 ± 3 | 63 ± 3 | 82 ± 4 |  | 
O=C(NS(=O)(=O)O)c1ccc(Br)cc1 [Compound 8] | 75 ± 4 | 73 ± 7 | 88 ± 3 |  | 
O=C(NS(=O)(=O)O)c1cccc(Cl)c1 [Compound 3] | 72 ± 5 | 64 ± 6 | 97 ± 7 | less active in lowering triglyceride levels | antihypercholesteremic activity (in words) (Serum Cholesterol [1]): more active than saccharin in lowering serum cholesterol levels
COc1cccc(CS(N)(=O)=O)c1 [Compound 18] | 84 ± 6 | 79 ± 7 | 42 ± 4 | more active than saccharin; also recorded: the most active antihypertriglyceridemics in the series | Serum Triglycerides, Day 16 (Serum Triglycerides): 42 % Control
O=C(NS(=O)(=O)O)c1ccccc1Cl [Compound 4] | 78 ± 6 | 51 ± 5 | 86 ± 8 | less active in lowering triglyceride levels | antihypercholesteremic activity (in words) (Serum Cholesterol [1]): more active than saccharin in lowering serum cholesterol levels
COc1ccccc1CS(N)(=O)=O [Compound 17] | 69 ± 4 | 68 ± 7 | 58 ± 6 |  | antihypercholesteremic activity (in words) (Serum Cholesterol [1]): the most active antihypercholesteremic, being equal in activity to saccharin
O=S(=O)(O)NCc1ccc(Cl)cc1 [Compound 15] | 94 ± 2 | 93 ± 4 | 79 ± 7 |  | 
CC(=O)c1ccc(C(=O)NS(=O)(=O)O)cc1 [Compound 10] | 95 ± 3 | 72 ± 4 | 69 ± 6 |  | 
NS(=O)(=O)Cc1ccccc1Cl [Compound 16, (o-Chlorobenzyl)sulfonamide] | 99 ± 8 | 73 ± 6 | 52 ± 6 | the most active antihypertriglyceridemics in the series | hypolipidemic activity (in words) [2]: effective both in normal and hyperlipidemic mice and is active both orally an intraperitonally; reducing triglyceride levels (triglyceride levels): 49%; hypolipidemic agent in rodents (in words) (serum cholesterol [3]): potent hypolipidemic agent in rodents; reducing serum cholesterol levels (serum cholesterol [3]; 60/mg/kg/day): 71%
COc1ccc(CS(N)(=O)=O)cc1 [Compound 19] | 74 ± 8 | 70 ± 5 | 76 ± 7 |  | 
O=C(NS(=O)(=O)O)c1ccccc1 [Compound 7] | 74 ± 6 | 57 ± 5 | 70 ± 6 | less active in lowering triglyceride levels | antihypercholesteremic activity (in words) (Serum Cholesterol [1]): more active than saccharin in lowering serum cholesterol levels; antihypercholesteremic activity (in words) (Serum Cholesterol [1]; listed as unsubstituted prototype): quite active
CCOC(=O)C(C)(C)Oc1ccc(Cl)cc1 [Clofibrate, reference compound] | 98 ± 7 | 97 ± 9 | 95 ± 7 |  | 
NS(=O)(=O)Cc1cccc(Cl)c1 [Compound 21] | 92 ± 7 | 77 ± 5 | 71 ± 5 |  | 
NS(=O)(=O)Cc1ccc(Cl)cc1 [Compound 22] | 94 ± 7 | 78 ± 8 | 48 ± 4 | equally active with saccharin; also recorded: the most active antihypertriglyceridemics in the series | 
O=C1NS(=O)(=O)c2ccccc21 [Saccharin, reference compound] | 77 ± 6 | 68 ± 7 | 48 ± 6 |  | 
COc1ccc(C(=O)NS(=O)(=O)O)cc1 [Compound 1] | 63 ± 6 | 60 ± 7 | 65 ± 8 | less active in lowering triglyceride levels | antihypercholesteremic activity (in words) (Serum Cholesterol [1]): more active than saccharin in lowering serum cholesterol levels
CC(C)c1ccc(C(=O)NS(=O)(=O)O)cc1 [Compound 11] | 90 ± 6 | 77 ± 6 | 49 ± 8 |  | Serum Triglycerides, Day 16 (Serum Triglycerides; listed as p-isopropyl derivative): 49±8 % Control
O=S(=O)(O)NCc1ccccc1Cl [Compound 14] | 84 ± 8 | 78 ± 2 | 75 ± 2 | increased antihyertriglyceridemic activity compared to N-benzoylsulfamate 4 | 
O=S(=O)(O)NCc1ccccc1 [Compound 13] | 94 ± 7 | 88 ± 2 | 97 ± 8 |  | 
COc1cccc(C(=O)NS(=O)(=O)O)c1 [Compound 5] | 86 ± 7 | 72 ± 5 | 80 ± 7 |  | 
COc1ccc(CNS(=O)(=O)O)cc1 [Compound 12] | 88 ± 4 | 87 ± 2 | 91 ± 9 |  | 
NS(=O)(=O)Cc1ccccc1 [Compound 20] | 95 ± 8 | 75 ± 5 | 42 ± 3 | more active than saccharin; also recorded: the most active antihypertriglyceridemics in the series | Serum Triglycerides, Day 16 (Serum Triglycerides): 42 % Control
O=C(NS(=O)(=O)[O-])c1ccc(Cl)cc1.[Na+] [Compound 2, N-(p-chlorobenzoyl)-sulfamic acid sodium salt] | 57 ± 5 |  | 55 ± 7 | less active in lowering triglyceride levels | lowered serum cholesterol levels (Serum Cholesterol [1]; [6]): 48%; response vs control in vivo at 20 mg/kg (Serum Cholesterol [1]; 384 h, read-out: Serum Cholesterol, Day 16): 52 ± 6%; antihypercholesteremic activity (in words) (Serum Cholesterol [1]): more active than saccharin in lowering serum cholesterol levels; Serum Triglycerides, Day 16 (Serum Triglycerides; listed as p--Cl, sodium salt): 55±7 % Control; lowered serum triglyceride levels (Serum Triglycerides; [6]): 45%
